Source: patent US9096548B2, “Pyrazine amide compounds” (Boehringer Ingelheim International GmbH, priority 2013, dated 2015)
Where two headings read alike, the source gives them in different places.

Target: T1, ENaC (Epithelial Sodium Channel) (Mus musculus, UniProt Q61180+Q9WU38+Q9WU39)
T1 construct: Mouse kidney M−1 cells were cultivated in DMEM; endogenous in cells; host or cells: Mouse kidney M-1 cells, cultivated with dexamethasone on transwell filters
T1 sequence (Q61180 1-699): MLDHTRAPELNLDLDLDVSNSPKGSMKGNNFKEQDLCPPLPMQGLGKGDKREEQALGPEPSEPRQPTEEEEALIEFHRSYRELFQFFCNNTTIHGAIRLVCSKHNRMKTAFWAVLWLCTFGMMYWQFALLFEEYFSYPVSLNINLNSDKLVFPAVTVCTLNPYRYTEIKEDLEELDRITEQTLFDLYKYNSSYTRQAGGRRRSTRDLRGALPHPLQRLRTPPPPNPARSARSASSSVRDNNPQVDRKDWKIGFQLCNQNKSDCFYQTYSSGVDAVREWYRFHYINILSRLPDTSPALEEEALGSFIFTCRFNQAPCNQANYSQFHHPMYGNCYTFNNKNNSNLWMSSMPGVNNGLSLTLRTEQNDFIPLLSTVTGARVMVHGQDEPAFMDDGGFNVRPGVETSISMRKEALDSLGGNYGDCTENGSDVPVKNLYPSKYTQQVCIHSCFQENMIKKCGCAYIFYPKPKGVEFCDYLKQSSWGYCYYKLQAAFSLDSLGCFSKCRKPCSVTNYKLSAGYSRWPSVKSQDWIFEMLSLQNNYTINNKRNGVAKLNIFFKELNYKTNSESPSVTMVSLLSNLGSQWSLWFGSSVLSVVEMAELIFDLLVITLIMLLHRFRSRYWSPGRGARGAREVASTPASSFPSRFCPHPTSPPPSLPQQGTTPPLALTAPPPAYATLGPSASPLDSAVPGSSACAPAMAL
T1 sequence (Q9WU38 1-638): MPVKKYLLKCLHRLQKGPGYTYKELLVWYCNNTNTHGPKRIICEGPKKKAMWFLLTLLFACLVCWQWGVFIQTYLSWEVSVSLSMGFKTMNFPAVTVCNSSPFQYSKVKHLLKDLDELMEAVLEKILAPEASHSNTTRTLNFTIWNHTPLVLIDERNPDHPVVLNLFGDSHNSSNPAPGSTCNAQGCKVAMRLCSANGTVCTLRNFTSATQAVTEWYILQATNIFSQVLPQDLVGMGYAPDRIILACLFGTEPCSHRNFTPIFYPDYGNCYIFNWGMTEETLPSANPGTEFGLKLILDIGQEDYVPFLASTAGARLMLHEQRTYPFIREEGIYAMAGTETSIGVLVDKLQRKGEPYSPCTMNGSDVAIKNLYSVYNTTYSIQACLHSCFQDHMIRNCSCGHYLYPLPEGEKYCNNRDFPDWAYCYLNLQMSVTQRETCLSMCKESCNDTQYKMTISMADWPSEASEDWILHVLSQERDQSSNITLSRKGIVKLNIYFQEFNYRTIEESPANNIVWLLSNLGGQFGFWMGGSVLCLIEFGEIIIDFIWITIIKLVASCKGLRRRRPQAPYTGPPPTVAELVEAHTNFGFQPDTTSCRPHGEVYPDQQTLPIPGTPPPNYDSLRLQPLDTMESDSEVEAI
T1 sequence (Q9WU39 1-655): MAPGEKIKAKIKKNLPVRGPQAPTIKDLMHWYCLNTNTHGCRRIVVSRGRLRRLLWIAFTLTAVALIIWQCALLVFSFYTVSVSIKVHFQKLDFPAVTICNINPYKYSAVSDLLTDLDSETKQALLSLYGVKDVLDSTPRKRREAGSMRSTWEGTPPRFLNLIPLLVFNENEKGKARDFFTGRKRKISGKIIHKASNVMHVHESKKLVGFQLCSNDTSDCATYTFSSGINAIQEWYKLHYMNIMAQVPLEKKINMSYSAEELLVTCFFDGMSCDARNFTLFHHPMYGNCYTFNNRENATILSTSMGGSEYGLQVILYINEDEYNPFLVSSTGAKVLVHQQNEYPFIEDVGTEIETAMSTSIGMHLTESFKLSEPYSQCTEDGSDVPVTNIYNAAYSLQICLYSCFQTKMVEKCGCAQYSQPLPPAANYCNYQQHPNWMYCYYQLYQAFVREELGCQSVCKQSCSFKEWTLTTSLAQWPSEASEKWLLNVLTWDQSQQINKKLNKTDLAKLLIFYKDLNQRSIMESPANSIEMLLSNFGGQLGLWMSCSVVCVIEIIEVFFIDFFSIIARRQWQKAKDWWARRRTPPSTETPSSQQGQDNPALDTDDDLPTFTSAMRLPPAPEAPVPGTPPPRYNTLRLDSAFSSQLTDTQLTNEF
Experiment: Ussing Chamber assay (short circuit current, amiloride sensitive I_SC)
Type: cell-based
Conditions: Ussing chamber, mouse kidney M-1 cells, short circuit current, read-out: IC50
Method: The IC50 values of the example compounds given above were determined in the Ussing Chamber assay.
Ussing Chamber: Mouse kidney M−1 cells were cultivated in DMEM containing 5% FCS and 5 μM dexamethasone for 10 to 12 days on polyester transwell filters. Filters were inserted into a teflon-coated well-plate which fit into the ussing chamber system. Prior to measurement the medium of M−1 cells was replaced with Caco-2 transport buffer (Invitrogen, Germany). During measurements, the Ussing chamber temperature was kept at 37° C. Short circuit currents (I_sc) were measured in the voltage-clamp mode with the software package Lab View for data acquisition and analysis. The transepithelial electrical resistance (TEER) was determined by the application of voltage steps of ±5 mV every 5 sec. Compounds were administered at a final concentration of 3 μM or at increasing concentrations (1-3-10 μM) to the apical solution. At the end of each experiment the amiloride sensitive I_SC was measured by adding 3 μM amiloride to the apical compartment. Results are expressed as inhibition in percent of the amiloride effect or as IC50.

[1] = compound added to the apical solution
[2] = value printed in the example text with μM

Row | IC50 [1] [µM] | SMILES | also measured
1 | 0.005 | Nc1nc(N)c(C(=O)N[C@H]2CCC[N+](CCCc3ccc(OCC(=O)NCc4ccccn4)cc3)(CCCc3ccc(OCC(=O)NCc4ccccn4)cc3)C2)nc1Cl [Example 6.62] | 
2 | 0.083 | CN1CCC(NC(=O)COc2ccc(CCC[N+]3(CCCc4ccc(OCC(=O)NC5CCN(C)C5=O)cc4)CCC[C@H](NC(=O)c4nc(Cl)c(N)nc4N)C3)cc2)C1=O (stereo partly drawn) [Example 6.46] | 
3 | 0.046 | Nc1nc(N)c(C(=O)N[C@H]2CCC[N+](CCCc3ccc(OCC(=O)NC(CO)CO)cc3)(CCCc3ccc(OCC(=O)NC(CO)CO)cc3)C2)nc1Cl [Example 6.20] | 
4 | 0.042 | Nc1nc(N)c(C(=O)N[C@H]2CCC[N+](CCCc3ccc(OCC(=O)NCCN4CCOCC4)cc3)(CCCc3ccc(OCC(=O)NCCN4CCOCC4)cc3)C2)nc1Cl [Example 6.63] | 
5 | 0.047 | Nc1nc(N)c(C(=O)N[C@@H]2CCC[N+](CCCc3c(F)cccc3F)(CCCc3c(F)cccc3F)C2)nc1Cl [Example 10.3, 3-[(3,5-Diamino-6-chloro-pyrazine-2-carbonyl)-amino]-1,1-bis-[3-(2,6-difluoro-phenyl)-propyl]-piperidinium chloride] | 
6 | 0.014 | Nc1nc(N)c(C(=O)N[C@H]2CCC[N+](CCCc3ccc(OCC(=O)NCCCCO)cc3)(CCCc3ccc(OCC(=O)NCCCCO)cc3)C2)nc1Cl [Example 6.25] | 
7 | 0.131 | CP(C)(=O)CNC(=O)COc1ccc(CCC[N+]2(CCCc3ccc(OCC(=O)NCP(C)(C)=O)cc3)CCC[C@H](NC(=O)c3nc(Cl)c(N)nc3N)C2)cc1 [Example 6.67] | 
8 | 0.072 | NC(=O)COc1ccc(CCC[N+]2(CCCc3ccc(OCC(N)=O)cc3)CCCC(NC(=O)c3nc(Cl)c(N)nc3N)C2)cc1 (stereo not drawn) [Example 6.4] | 
9 | 0.004 | Nc1nc(N)c(C(=O)N[C@H]2CCC[N+](CCCc3ccc(OCC(=O)NCc4cccnc4)cc3)(CCCc3ccc(OCC(=O)NCc4cccnc4)cc3)C2)nc1Cl [Example 6.57] | 
10 | 0.017 | CN(Cc1cccnc1)C(=O)COc1ccc(CCC[N+]2(CCCc3ccc(OCC(=O)N(C)Cc4cccnc4)cc3)CCC[C@H](NC(=O)c3nc(Cl)c(N)nc3N)C2)cc1 [Example 6.27] | 
11 | 0.027 | CO[C@H]1COC[C@@H]1NC(=O)COc1ccc(CCC[N+]2(CCCc3ccc(OCC(=O)N[C@H]4COC[C@@H]4OC)cc3)CCC[C@H](NC(=O)c3nc(Cl)c(N)nc3N)C2)cc1 [Example 6.49] | 
12 | 0.068 | C[N+](C)(C)CCNC(=O)COc1ccc(CCC[N+]2(CCCc3ccc(OCC(=O)NCC[N+](C)(C)C)cc3)CCC[C@H](NC(=O)c3nc(Cl)c(N)nc3N)C2)cc1 [Example 6.10] | 
13 | 0.03 | Nc1nc(N)c(C(=O)N[C@H]2CCC[N+](CCCc3ccc(OCC(=O)NCC(O)CO)cc3)(CCCc3ccc(OCC(=O)NCC(O)CO)cc3)C2)nc1Cl (stereo partly drawn) [Example 6.19] | 

More lines, now with the values behind:

Row | SMILES | IC50 [1] [µM] | also measured
14 | COC(=O)C[C@@H](C[N+](C)(CCCc1ccc(OC)cc1)CCCc1ccc(OC)cc1)NC(=O)c1nc(Cl)c(N)nc1N [Example 7, {(S)-2-[(3,5-Diamino-6-chloro-pyrazine-2-carbonyl)-amino]-3-methoxycarbonyl-propyl}-bis-[3-(4-methoxy-phenyl)-propyl]-methyl-ammonium chloride] |  | IC50 (unit inferred): 0.021 µM
15 | CCOC(=O)C[N+]1(CCCc2ccc(OC)cc2)CCCC(NC(=O)c2nc(Cl)c(N)nc2N)C1 (stereo not drawn) [Example 12, 3-[(3,5-Diamino-6-chloro-pyrazine-2-carbonyl)-amino]-1-ethoxycarbonylmethyl-1-[3-(4-methoxy-phenyl)-propyl]-piperidinium chloride] |  | IC50 (unit inferred): 0.15 µM
16 | COc1ccc(CCC[N+]2(CCCc3ccc(OC)cc3)CCC(NC(=O)c3nc(Cl)c(N)nc3N)C2)cc1 (stereo not drawn) [Example 1.1] | 0.03 | 
17 | COC(=O)C[N+]1(CCCc2ccc(OC)cc2)CCCC(NC(=O)c2nc(Cl)c(N)nc2N)C1 (stereo not drawn) [Example 14, 3-[(3,5-Diamino-6-chloro-pyrazine-2-carbonyl)-amino]-1-methoxycarbonylmethyl-1-[3-(4-methoxy-phenyl)-propyl]-piperidinium chloride] |  | IC50 [2]: 0.137 µM
18 | COc1ccc(CCC[N+]2(C)CCC(NC(=O)c3nc(Cl)c(N)nc3N)C2)cc1 (stereo not drawn) [Example 3, 3-[(3,5-Diamino-6-chloro-pyrazine-2-carbonyl)-amino]-1-[3-(4-methoxy-phenyl)-propyl]-1-methyl-pyrrolidinium chloride] |  | IC50 [2]: 0.79 µM
19 | COC(=O)COc1ccc(CCC[N+]2(CCCc3ccc(OCC(=O)NCCOCCOCCO)cc3)CCCC(NC(=O)c3nc(Cl)c(N)nc3N)C2)cc1 (stereo not drawn) [Example 8.2, 3-[(3,5-Diamino-6-chloro-pyrazine-2-carbonyl)-amino]-1-{3-[4-({2-[2-(2-hydroxy-ethoxy)ethoxy]-ethylcarbamoyl}-methoxy)-phenyl]-propyl}-1-[3-(4-methoxycarbonylmethoxy-phenyl)-propyl]-piperidinium chloride] |  | IC50 (unit inferred): 0.37 µM
20 | Nc1nc(N)c(C(=O)N[C@H]2CCC[N+](CCCc3ccc(OCCOCCOCCOCCO)cc3)(CCCc3ccc(OCCOCCOCCOCCO)cc3)C2)nc1Cl [Example 9.4, 3-[(3,5-Diamino-6-chloro-pyrazine-2-carbonyl)-amino]-1,1-bis-{3-[4-(2-{2-[2-(2-hydroxy-ethoxy)-ethoxy]-ethoxy}-ethoxy)-phenyl]-propyl}-piperidinium chloride] |  | IC50 (unit inferred): 0.067 µM
21 | Nc1nc(N)c(C(=O)N[C@H]2CCC[N+](CCCc3ccc(OCCO)cc3)(CCCc3ccc(OCCO)cc3)C2)nc1Cl [Example 9.6, (S)-3-[(3,5-Diamino-6-chloro-pyrazine-2-carbonyl)-amino]-1,1-bis-{3-[4-(2-hydroxyethoxy)-phenyl]-propyl}-piperidinium chloride] |  | IC50 (unit inferred): 0.038 µM
22 | COC(=O)CCNC(=O)c1ccc(CCC[N+]2(CCCc3ccc(OC)cc3)CCCC(NC(=O)c3nc(Cl)c(N)nc3N)C2)cc1 (stereo not drawn) [Example 5.8] | 0.024 | 
23 | COc1ccc(CCC[N+](C)(CCCc2ccc(OC)cc2)CC(NC(=O)c2nc(Cl)c(N)nc2N)c2ccccc2)cc1 (stereo not drawn) [Example 2, {2-[(3,5-Diamino-6-chloro-pyrazine-2-carbonyl)-amino]-2-phenyl-ethyl}-bis-[3-(4-methoxy-phenyl)-propyl]-methyl-ammonium chloride] |  | IC50 (unit inferred): 0.03 µM
24 | COc1ccc(CCC[N+](C)(CCCc2ccc(OC)cc2)C[C@H](C)NC(=O)c2nc(Cl)c(N)nc2N)cc1 [Example 2.2] | 0.13 | 
